The values that follow come from patent USRE45313E1, “Exendin variant peptides” (priority 1999, dated 2014).

For orientation: half-life means how long it takes for the measured level to halve. The low end stands for fast loss, the high end for slow loss.

One data set concerns the target T1, leucine aminopeptidase (Sus scrofa, UniProt P28839).
T1 sequence (P28839 1-519): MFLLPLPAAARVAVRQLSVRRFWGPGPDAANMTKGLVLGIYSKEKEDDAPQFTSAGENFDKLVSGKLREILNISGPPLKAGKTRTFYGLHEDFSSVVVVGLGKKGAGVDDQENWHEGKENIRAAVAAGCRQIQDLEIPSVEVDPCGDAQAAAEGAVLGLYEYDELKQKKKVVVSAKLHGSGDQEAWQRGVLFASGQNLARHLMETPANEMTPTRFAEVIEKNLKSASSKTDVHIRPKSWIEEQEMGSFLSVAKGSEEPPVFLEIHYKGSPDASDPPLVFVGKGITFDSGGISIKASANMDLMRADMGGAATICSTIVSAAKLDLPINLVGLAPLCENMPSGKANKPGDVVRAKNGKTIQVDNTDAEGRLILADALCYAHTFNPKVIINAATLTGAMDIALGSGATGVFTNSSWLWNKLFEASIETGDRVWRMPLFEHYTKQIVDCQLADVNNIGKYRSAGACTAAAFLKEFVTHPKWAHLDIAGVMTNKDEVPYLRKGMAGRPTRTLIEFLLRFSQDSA
As to the kind of experiment: In vitro stability in leucine aminopeptidase solution. The note with it: pH 7.4; for half-life at 0.1 mg/ml: isolated enzyme aminopeptidase. The method, then:
(§1) A SHT200D block heater from Stuart Scientific was used for heating of the peptide/enzyme solutions during the stability experiments. The degradation of the test compounds was studied at 37° C. in 50 mM phosphate buffer solutions of pH 7.4 containing leucine aminopeptidase (25 U/ml) or carboxypeptidase A (1 U/ml) or 100 mM ammoniumbicarbonate buffer of pH 8.0 containing dipeptidyl aminopeptidase IV (0.5 U/ml). Experiments were initiated by addition of an aliquot (100 μl) of a stock solution (1 mg/ml) of the peptide in water to 900 μl preheated enzyme solution in an Eppendorf microvial giving an initial concentration of 0.1 mg/ml (˜1.7·10−5-1.8·10−5 M) of the peptide. The peptide/enzyme solution was kept at 37° C. and at appropriate time intervals samples of 100 μl were withdrawn from the peptide/enzyme solution and mixed thoroughly with 20 μl 25% TFA in acetonitrile in order to stop the enzymatic degradation process. The inactivated samples were transferred to autosampler vials and analysed for content of intact test compound by HPLC as described below.
(§2) Samples from the stability experiments performed as described above were analysed by gradient HPLC analysis using the instrumentation described above and the following experimental conditions.
(§3) In vitro stability studies with the present peptides and peptide conjugates in the presence of selected proteolytic enzymes are applied as a tool for evaluating the protection of said peptides against proteolysis in vivo.
(§4) Water used was of highest quality obtained from a Milli-Q water treatment system (Millipore, Bedford, Mass., U.S.A.). Acetonitrile (ACN) was of super gradient quality obtained from Labscan Ltd. (Dublin, Ireland). […] Leucine aminopeptidase (EC 3.4.11.1), Carboxypeptidase A (EC 3.4.17.1) and Dipeptidyl peptidase (Dipeptidyl aminopeptidase IV, EC 3.4.14.5) were all obtained from Sigma (St. Louis, Mo., U.S.A.). Gradient HPLC analysis was done using a Hewlett Packard HP 1100 HPLC system consisting of a HP 1100 Binary Pump, a HP 1100 Autosampler, A HP 1100 Column Thermostat and a HP 1100 Variable Wavelength Detector. Hewlett Packard Chem-station for LC software (Rev. A.06.01) was used for instrument control and data acquisition. A Vydac 238TP54 (150×4.6 mm I.D.) column packed with 5 μm, C18, 300 Å

The next data set in a line: in vivo. The method, then: Compound 4 (batch No. ZP 7.97-5-F, 4053 g/mol) and Compound (iii) (batch No. ZP 7.73-2-G, 3854 g/mol) were synthesised in-house using the Fmoc strategy.
Plasma (250 μl) was transferred to ice-chilled 0.75 ml PLC vials containing 250 μl extraction solution (MeCN: 0.18 M Ammonium Carbonate pH 9.5, 10:90 v/v). The plasma samples were stored at −20 C until SPE and LC/MS analysis.

Another data set addresses T2, carboxypeptidase A (Bos taurus, UniProt P00730).
T2 sequence (P00730 111-419): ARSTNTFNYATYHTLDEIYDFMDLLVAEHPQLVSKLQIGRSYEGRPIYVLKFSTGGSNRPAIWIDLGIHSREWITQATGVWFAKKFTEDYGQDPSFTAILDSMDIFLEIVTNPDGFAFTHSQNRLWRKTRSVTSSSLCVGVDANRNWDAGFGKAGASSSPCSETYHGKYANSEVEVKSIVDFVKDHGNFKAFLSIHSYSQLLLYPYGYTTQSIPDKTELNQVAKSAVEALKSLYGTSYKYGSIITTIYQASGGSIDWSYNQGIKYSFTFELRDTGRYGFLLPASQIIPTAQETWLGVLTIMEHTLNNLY
Briefly: In vitro stability in carboxypeptidase A solution. Conditions: pH 7.4; for half-life at 0.1 mg/ml: isolated enzyme carboxypeptidase. The method, then: as §1, §2, §3, §4

Data set [1] deals with dipeptidyl aminopeptidase IV (Sus scrofa, UniProt P22411). Briefly: In vitro stability in dipeptidyl aminopeptidase IV solution. Conditions: pH 8; for half-life at 0.1 mg/ml: isolated enzyme dpp iv. The method, then:
as §1, §2, §3, §4

Chain of dipeptidyl aminopeptidase IV (P22411 whole entry): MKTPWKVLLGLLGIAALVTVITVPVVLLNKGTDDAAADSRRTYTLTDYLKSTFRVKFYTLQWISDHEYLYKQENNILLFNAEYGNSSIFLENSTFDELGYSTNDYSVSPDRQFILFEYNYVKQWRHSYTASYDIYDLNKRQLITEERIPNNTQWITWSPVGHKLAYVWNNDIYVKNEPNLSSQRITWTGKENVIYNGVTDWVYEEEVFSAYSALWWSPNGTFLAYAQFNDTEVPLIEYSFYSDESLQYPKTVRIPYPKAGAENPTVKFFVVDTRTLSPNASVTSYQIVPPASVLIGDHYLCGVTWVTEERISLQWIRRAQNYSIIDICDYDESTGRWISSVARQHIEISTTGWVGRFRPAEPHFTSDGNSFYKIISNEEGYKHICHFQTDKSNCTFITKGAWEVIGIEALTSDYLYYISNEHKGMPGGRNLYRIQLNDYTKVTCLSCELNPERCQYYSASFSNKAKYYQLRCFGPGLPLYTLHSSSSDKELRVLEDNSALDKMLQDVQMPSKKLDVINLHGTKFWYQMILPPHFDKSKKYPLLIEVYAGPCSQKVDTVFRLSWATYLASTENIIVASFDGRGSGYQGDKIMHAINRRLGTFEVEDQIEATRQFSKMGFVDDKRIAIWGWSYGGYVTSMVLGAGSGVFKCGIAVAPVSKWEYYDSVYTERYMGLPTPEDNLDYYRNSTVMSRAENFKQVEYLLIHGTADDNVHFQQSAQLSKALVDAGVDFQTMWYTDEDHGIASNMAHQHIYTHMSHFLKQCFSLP

Consider `CC[C@H](C)[C@H](NC(=O)[C@H](Cc1ccccc1)NC(=O)[C@H](CCC(=O)O)NC(=O)[C@H](CCCCN)NC(=O)[C@H](C)NC(=O)[C@H](C)NC(=O)[C@H](CCC(N)=O)NC(=O)CNC(=O)[C@H](CCC(=O)O)NC(=O)[C@H](CC(C)C)NC(=O)[C@H](Cc1ccc(O)cc1)NC(=O)[C@H](CO)NC(=O)[C@H](CO)NC(=O)[C@@H](NC(=O)[C@H](CC(=O)O)NC(=O)[C@H](CO)NC(=O)[C@@H](NC(=O)[C@H](Cc1ccccc1)NC(=O)[C@@H](NC(=O)CNC(=O)[C@H](CCC(=O)O)NC(=O)CNC(=O)[C@@H](N)Cc1c[nH]cn1)[C@@H](C)O)[C@@H](C)O)C(C)C)C(=O)N[C@@H](C)C(=O)N[C@@H](Cc1c[nH]c2ccccc12)C(=O)N[C@@H](CC(C)C)C(=O)N[C@H](C(=O)N[C@@H](CCCCN)C(=O)NCC(=O)N[C@@H](CCCNC(=N)N)C(=O)N[C@@H](CCCCN)C(=O)N[C@@H](CCCCN)C(=O)N[C@@H](CCCCN)C(=O)N[C@@H](CCCCN)C(=O)N[C@@H](CCCCN)C(=O)N[C@@H](CCCCN)C(N)=O)C(C)C` [Compound 4], for which the half-life at 0.1 mg/ml was roughly 36 h on leucine aminopeptidase, 2.42 h at carboxypeptidase A and 4.87 h in data set [1]. Besides, the entries for the “detected in the plasma samples (rats)” value in the data set “in vivo” (intra duodenal administration of 1.000 nmol/kg) and in the data set “in vivo” (intra duodenal administration of 10.000 nmol/kg) were “two out of four rats” and “four out of five rats”, respectively.

Regarding `CCCCCCCCCCCCCCCC(=O)NCCCC[C@H](NC(=O)[C@H](CCCNC(=N)N)NC(=O)CNC(=O)[C@H](CCCCN)NC(=O)[C@@H](NC(=O)[C@H](CC(C)C)NC(=O)[C@H](Cc1c[nH]c2ccccc12)NC(=O)[C@H](C)NC(=O)[C@@H](NC(=O)[C@H](Cc1ccccc1)NC(=O)[C@H](CCC(=O)O)NC(=O)[C@H](CCCCN)NC(=O)[C@H](C)NC(=O)[C@H](C)NC(=O)[C@H](CCC(N)=O)NC(=O)CNC(=O)[C@H](CCC(=O)O)NC(=O)[C@H](CC(C)C)NC(=O)[C@H](Cc1ccc(O)cc1)NC(=O)[C@H](CO)NC(=O)[C@H](CO)NC(=O)[C@@H](NC(=O)[C@H](CC(=O)O)NC(=O)[C@H](CO)NC(=O)[C@@H](NC(=O)[C@H](Cc1ccccc1)NC(=O)[C@@H](NC(=O)CNC(=O)[C@H](CCC(=O)O)NC(=O)CNC(=O)[C@@H](N)Cc1c[nH]cn1)[C@@H](C)O)[C@@H](C)O)C(C)C)[C@@H](C)CC)C(C)C)C(=O)N[C@@H](CCCCN)C(=O)N[C@@H](CCCCN)C(=O)N[C@@H](CCCCN)C(=O)N[C@@H](CCCCN)C(=O)N[C@@H](CCCCN)C(=O)N[C@@H](CCCCN)C(N)=O` [Compound 5], the half-life on leucine aminopeptidase is greater than 72 h; on carboxypeptidase A, greater than 48 h; in data set [1], 7.33 h.

Regarding `CC[C@H](C)[C@H](NC(=O)[C@H](Cc1ccccc1)NC(=O)[C@H](CCC(=O)O)NC(=O)[C@H](CCCCN)NC(=O)[C@H](C)NC(=O)[C@H](C)NC(=O)[C@H](CCC(N)=O)NC(=O)CNC(=O)[C@H](CCC(=O)O)NC(=O)[C@H](CC(C)C)NC(=O)[C@H](Cc1ccc(O)cc1)NC(=O)[C@H](CO)NC(=O)[C@H](CO)NC(=O)[C@@H](NC(=O)[C@H](CC(=O)O)NC(=O)[C@H](CO)NC(=O)[C@@H](NC(=O)[C@H](Cc1ccccc1)NC(=O)[C@@H](NC(=O)CNC(=O)[C@H](CCC(=O)O)NC(=O)CNC(=O)[C@@H](N)Cc1cnc[nH]1)[C@@H](C)O)[C@@H](C)O)C(C)C)C(=O)N[C@@H](C)C(=O)N[C@@H](Cc1c[nH]c2ccccc12)C(=O)N[C@@H](CC(C)C)C(=O)N[C@H](C(=O)N[C@@H](CCCCN)C(=O)NCC(=O)N[C@@H](CCCNC(=N)N)C(N)=O)C(C)C` [Compound (iii), reference compound], the half-life at 0.1 mg/ml at leucine aminopeptidase is 11.6 h; on carboxypeptidase A, 2.12 h; in data set [1] it was 0.933 h. The level at time molar in the data set “in vivo” (Sprague-Dawley, rat, plasma, 10 nmol/kg) was less than 0.5 nM.
